# Source: patent publication US10227347B2, “Purinyl-N-hydroxyl pyrimidine formamide derivative, preparation methods and uses thereof” (Guizhou Bailing Group Pharmaceutical CO., LTD., priority 2015, dated 2019)
# Read-outs that look alike come from different tables or passages of the source.
# Experiments:
# [1] = molecular target: T1, PI3Kβ (Homo sapiens, UniProt P42338); test: PI3Kβ activity inhibition (ADP-Glo); assay type: biochemical; details: Table 4, graded
# T1 construct: purchased Millipore 14-603-K
# T1 sequence (P42338 whole entry, species assumed): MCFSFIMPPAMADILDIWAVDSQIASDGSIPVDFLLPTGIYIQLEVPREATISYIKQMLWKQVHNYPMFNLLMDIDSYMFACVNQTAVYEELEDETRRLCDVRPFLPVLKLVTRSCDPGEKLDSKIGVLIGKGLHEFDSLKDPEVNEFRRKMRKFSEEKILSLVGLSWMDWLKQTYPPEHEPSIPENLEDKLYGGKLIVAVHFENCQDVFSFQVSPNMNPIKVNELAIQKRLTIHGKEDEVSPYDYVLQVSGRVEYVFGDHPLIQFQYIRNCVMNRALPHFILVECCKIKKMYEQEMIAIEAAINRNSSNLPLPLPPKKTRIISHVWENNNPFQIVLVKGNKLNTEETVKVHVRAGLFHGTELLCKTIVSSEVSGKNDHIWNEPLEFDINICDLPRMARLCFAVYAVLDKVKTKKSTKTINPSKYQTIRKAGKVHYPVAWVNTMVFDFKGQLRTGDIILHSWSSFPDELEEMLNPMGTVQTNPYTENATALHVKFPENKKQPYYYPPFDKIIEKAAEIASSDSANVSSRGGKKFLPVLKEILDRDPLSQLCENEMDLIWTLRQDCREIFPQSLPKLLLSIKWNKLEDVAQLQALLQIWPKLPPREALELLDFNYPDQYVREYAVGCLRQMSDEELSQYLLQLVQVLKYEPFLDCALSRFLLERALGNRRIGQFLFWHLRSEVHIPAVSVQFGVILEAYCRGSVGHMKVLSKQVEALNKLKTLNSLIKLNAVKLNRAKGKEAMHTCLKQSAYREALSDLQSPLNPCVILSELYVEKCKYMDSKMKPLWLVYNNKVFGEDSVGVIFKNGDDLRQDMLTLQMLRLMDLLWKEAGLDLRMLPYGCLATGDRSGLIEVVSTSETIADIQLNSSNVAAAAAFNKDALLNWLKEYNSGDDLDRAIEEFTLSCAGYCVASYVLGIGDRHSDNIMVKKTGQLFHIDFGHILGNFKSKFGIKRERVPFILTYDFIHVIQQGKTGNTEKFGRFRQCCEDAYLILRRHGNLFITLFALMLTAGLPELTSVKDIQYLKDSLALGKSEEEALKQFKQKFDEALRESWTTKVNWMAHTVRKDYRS
# T1 sequence (P27986 whole entry partner, species assumed): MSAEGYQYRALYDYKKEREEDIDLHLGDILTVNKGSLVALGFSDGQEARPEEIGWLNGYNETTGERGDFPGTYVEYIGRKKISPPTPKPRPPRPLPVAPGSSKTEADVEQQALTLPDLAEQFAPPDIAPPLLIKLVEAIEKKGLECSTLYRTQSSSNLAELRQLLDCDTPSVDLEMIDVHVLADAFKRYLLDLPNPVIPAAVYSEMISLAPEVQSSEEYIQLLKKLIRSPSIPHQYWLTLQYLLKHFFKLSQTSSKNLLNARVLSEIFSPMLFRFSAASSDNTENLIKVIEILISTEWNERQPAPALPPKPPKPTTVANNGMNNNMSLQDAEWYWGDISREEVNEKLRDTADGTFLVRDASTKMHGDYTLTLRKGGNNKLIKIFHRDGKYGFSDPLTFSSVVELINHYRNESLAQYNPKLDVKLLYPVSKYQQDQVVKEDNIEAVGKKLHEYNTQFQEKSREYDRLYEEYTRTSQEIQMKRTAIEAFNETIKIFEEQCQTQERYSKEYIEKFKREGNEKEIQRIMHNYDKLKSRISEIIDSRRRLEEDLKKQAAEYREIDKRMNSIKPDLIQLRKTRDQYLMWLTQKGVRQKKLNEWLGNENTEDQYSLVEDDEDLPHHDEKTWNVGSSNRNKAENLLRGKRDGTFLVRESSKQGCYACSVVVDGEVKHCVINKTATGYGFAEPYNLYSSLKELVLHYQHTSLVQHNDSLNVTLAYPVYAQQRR
# Method: (§1) Detecting the inhibition capability of the compound to PI3Kβ and PI3Kγ activities with ADP-Glo (purchased from Promege Company; Catalog No.: v9102/3). […] The reaction system also comprises substrates as PIP2 and ATP. The reaction buffer system comprises 50 mM HEPES, 3 mM MgCl2, 1 mM EGTA, 100 mM NaCl, 0.03% CHAPS and 2 mM DTT. The pH value of the reaction buffer is 7.5. […] Mixing the system evenly for incubation under ambient temperature for 1 h; getting a new 384 well plate and transferring 5 μL reaction liquid from the each well of original 384 well plate to the corresponding wells of the new 384 well plate; adding 5 μL ADP-Glo which has been preheated to ambient temperature into each new reaction well to terminate the reaction; oscillating it slowly in dark place for 40 min's incubation after it is mixed evenly; adding 10 μL testing liquid in each reaction well, oscillating it for 1 min to mix evenly and incubating it for 1 h, then measuring the fluorescence intensity with a microplate reader and analyzing the result data with the software GraphPad Prism.
# (§2) Calculating the value of IC50 as per the formula: Y=background data+(top data−background data)/(1+10^((Log IC50−X)*rate of curve))
# (§3) Where, Y refers to the inhibition ratio (%) and X refers to the compound concentration.
# [2] = test system: HBL-1 cells (B-cell lymphoma); test: Proliferation inhibition, HBL-1 (cck-8); assay type: cell-based; details: Homo sapiens, HBL1; 96 h incubation
# Excerpt: (§4) Calculating the value of IC50 as per the formula: Y=background data+(top data−background data)/(1+10^((Log IC50−X)*rate of curve)). Where, Y refers to the inhibition ratio (%) and X refers to the compound concentration.
# [3] = molecular target: T2, PI3Kγ (Homo sapiens, UniProt P48736); test: PI3Kγ activity inhibition (ADP-Glo); assay type: biochemical; details: Table 4, graded
# T2 construct: purchased Invitrogen PR8641C
# T2 sequence (P48736 whole entry): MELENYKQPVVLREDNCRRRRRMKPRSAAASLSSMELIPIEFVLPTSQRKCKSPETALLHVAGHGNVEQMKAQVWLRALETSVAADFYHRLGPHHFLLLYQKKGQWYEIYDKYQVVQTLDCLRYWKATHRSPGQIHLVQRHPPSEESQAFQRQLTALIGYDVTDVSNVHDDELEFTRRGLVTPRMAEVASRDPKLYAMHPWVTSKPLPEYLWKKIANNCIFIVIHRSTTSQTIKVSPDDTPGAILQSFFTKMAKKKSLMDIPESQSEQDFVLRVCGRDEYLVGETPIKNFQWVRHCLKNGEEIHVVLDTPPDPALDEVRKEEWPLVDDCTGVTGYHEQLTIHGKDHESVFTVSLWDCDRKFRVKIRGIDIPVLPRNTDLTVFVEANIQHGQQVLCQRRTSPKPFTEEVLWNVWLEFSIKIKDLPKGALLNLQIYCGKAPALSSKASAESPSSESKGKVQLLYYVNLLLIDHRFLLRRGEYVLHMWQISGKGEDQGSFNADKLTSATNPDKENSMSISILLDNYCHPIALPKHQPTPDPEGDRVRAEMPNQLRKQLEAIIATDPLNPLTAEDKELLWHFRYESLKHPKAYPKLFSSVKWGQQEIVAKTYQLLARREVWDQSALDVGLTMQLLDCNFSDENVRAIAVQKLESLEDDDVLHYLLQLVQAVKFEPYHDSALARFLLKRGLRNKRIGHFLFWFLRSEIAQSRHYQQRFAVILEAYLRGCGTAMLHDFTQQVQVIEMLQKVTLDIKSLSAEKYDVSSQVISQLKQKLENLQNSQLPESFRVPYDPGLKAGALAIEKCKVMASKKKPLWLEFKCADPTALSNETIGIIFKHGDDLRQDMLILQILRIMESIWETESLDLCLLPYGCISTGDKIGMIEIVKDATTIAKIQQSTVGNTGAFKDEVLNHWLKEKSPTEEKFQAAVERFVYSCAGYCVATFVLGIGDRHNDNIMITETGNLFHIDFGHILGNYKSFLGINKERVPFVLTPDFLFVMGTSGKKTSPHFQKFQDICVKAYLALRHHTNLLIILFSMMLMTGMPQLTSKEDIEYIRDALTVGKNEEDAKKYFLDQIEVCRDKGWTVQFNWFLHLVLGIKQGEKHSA
# Method: as §1, §2, §3
# [4] = test system: acetylated Ac-α-tubulin in A2780s cells; test: Induction of α-tubulin acetylation in A2780s cells (cytoblot); assay type: cell-based; details: Homo sapiens, 6 h treatment, read-out: Ac-Tub EC50
# Method: (§5) Specific operation: After the treatment, washing each well once with 50-100 μl of cold TBS buffer [with the composition as 20 mM Tris (trismetyl aminomethane), pH7.5] and fixing it with 100 μL of 4% pre-cooled paraformaldehyde at 4° C. for 1 h; after paraformaldehyde is washed off, adding 50 μL of pre-cooled methyl alcohol in each well and evenly spreading at 4° C. for 5 min; after methyl alcohol is washed off, washing it once with the TBS buffer containing 3% skim milk powder and adding 50 μL of antibody fluid, oscillating it slightly at 4° C. and incubating overnight. For determination of Ac—H3, the antibody fluid is prepared by diluting Ac—H3 antibody and horseradish peroxide coupled secondary antibody to a same system with the TBS buffer containing 3% skim milk powder (Ac—H3 antibody is purchased from Santa Cruz Company and diluted at a ratio of 1:100; horseradish peroxide coupled secondary antibody is purchased from Jackson Company and diluted at a ratio of 1:2000); for determination of acetylated Ac-α-tubulin, the antibody fluid is prepared by diluting Ac-α-tubulin antibody and horseradish peroxide coupled secondary antibody to a same system with the TBS buffer containing 3% skim milk powder (Ac-α-tubulin antibody is purchased from Santa Cruz Company and diluted at a ratio of 1:100; horseradish peroxide coupled secondary antibody is purchased from Jackson Company and diluted at a ratio of 1:2000).
# (§6) Calculating the value of IC50 as per the formula: Y=background data+(top data−background data)/(1+10^((Log EC50−X)*rate of curve)) Where, Y refers to the activating rate (%) and X refers to the compound concentration.
# [5] = molecular target: T3, PI3Kδ (Homo sapiens, UniProt O00329); test: PI3Kδ activity inhibition (Kinase-Glo); assay type: biochemical; details: Table 4, graded
# T3 construct: purchased Millipore 14-604-K
# T3 sequence (O00329 whole entry): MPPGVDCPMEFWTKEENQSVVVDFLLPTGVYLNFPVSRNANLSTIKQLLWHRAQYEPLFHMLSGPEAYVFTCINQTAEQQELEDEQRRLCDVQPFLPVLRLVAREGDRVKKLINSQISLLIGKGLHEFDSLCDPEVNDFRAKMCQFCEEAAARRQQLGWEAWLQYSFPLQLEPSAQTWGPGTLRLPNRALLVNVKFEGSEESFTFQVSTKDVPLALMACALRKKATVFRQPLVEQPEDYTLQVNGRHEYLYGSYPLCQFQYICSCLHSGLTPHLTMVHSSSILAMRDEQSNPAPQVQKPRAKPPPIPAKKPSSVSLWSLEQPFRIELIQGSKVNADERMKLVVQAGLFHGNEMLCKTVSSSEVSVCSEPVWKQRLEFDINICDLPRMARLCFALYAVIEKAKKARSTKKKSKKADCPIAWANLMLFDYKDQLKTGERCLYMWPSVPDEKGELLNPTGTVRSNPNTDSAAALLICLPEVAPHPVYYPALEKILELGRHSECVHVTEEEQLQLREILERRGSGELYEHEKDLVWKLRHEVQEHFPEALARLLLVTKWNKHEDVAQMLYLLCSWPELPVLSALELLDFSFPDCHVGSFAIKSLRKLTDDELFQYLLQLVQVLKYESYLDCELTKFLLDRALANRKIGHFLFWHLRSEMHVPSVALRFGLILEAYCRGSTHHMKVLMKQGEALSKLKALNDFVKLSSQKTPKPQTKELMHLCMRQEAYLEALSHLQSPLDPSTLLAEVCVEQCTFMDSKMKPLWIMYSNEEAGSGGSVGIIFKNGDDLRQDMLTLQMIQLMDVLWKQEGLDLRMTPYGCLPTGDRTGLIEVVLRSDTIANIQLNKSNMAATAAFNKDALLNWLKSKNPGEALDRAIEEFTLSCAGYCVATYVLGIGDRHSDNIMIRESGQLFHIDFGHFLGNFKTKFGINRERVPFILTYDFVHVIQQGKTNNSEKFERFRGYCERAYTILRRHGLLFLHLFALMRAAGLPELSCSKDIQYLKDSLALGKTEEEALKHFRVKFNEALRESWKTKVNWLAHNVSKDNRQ
# T3 sequence (P27986 whole entry partner): as the sequence (P27986 whole entry partner, species assumed) above
# Method: Detecting the inhibition capability of the compound to PI3Kα and PI3Kδ activities with Kinase-Glo (purchased from Promege Company; Catalog No.: V3771). […] The reaction system also comprises substrates as PIP2 (4, 5-diphosphoinositide, purchased from Life Technologies Company) and ATP (triphosadenine, purchased from Sigma Company). The reaction buffer system comprises 50 mM HEPES (4-hydroxyethylpiperazine ethane sulfonic acid), 3 mM MgCl2, 1 mM EGTA (ethylene glycol bis(2-amino ethylether)quadrol), 100 mM NaCl, 0.03% CHAPS (3-[3-(cholamidopropyl)dimethylamino]-1-propanesulfonic acid), 2 mM DTT (dithiothreitol). The pH value of the reaction buffer is 7.5. […] Mixing the system evenly for incubation under ambient temperature (for 1 h in PI3Kα test and for 2 h in PI3Kδ test). After incubation, adding 10 μL Kinase-Glo which has been preheated to ambient temperature into each reaction well to terminate the reaction; shaking it in dark place for 15 min after it is mixed evenly, then measuring the fluorescence intensity with a microplate reader and analyzing the result data with the software GraphPad Prism.
# as §2, §3
# [6] = test system: SUDHL-4 cells (B-cell lymphoma); test: Proliferation inhibition, SUDHL-4 (cck-8); assay type: cell-based; details: Homo sapiens, SU-DHL-4; 96 h incubation
# Excerpt: as §4
# [7] = test system: MM1S cells (multiple myeloma); test: Proliferation inhibition, MM1S (cck-8); assay type: cell-based; details: Homo sapiens, MM1.S; 96 h incubation
# Excerpt: as §4
# [8] = test system: U266 cells (multiple myeloma); test: Proliferation inhibition, U266 (cck-8); assay type: cell-based; details: Homo sapiens, U-266; 96 h incubation
# Excerpt: as §4
# [9] = test system: A2780s cells (ovarian cancer); test: Cell proliferation inhibition, A2780s (MTT); assay type: cell-based; details: Homo sapiens, 96 h incubation, read-out: Proliferation IC50, Ovarian cancer A2780s
# Method in brief: (§7)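 Cells seeded at 2000-3000/well; adherent lines dosed after attachment, then 96 h incubation with compound. Viability read by MTT for solid-tumour lines (HCT116, A2780s) and CCK-8 for MV4-11; IC50 from four-parameter logistic fit of inhibition ratio versus concentration.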
# [10] = test system: RPMI-8226 cells (multiple myeloma); test: Proliferation inhibition, RPMI-8226 (cck-8); assay type: cell-based; details: Homo sapiens, 96 h incubation
# Excerpt: as §4
# [11] = molecular target: T4, PI3Kα (Homo sapiens, UniProt P42336); test: PI3Kα activity inhibition (Kinase-Glo); assay type: biochemical; details: read-out: PI3Kα IC50
# T4 construct: purchased Invitrogen PV4788
# T4 sequence (P42336 whole entry, species assumed): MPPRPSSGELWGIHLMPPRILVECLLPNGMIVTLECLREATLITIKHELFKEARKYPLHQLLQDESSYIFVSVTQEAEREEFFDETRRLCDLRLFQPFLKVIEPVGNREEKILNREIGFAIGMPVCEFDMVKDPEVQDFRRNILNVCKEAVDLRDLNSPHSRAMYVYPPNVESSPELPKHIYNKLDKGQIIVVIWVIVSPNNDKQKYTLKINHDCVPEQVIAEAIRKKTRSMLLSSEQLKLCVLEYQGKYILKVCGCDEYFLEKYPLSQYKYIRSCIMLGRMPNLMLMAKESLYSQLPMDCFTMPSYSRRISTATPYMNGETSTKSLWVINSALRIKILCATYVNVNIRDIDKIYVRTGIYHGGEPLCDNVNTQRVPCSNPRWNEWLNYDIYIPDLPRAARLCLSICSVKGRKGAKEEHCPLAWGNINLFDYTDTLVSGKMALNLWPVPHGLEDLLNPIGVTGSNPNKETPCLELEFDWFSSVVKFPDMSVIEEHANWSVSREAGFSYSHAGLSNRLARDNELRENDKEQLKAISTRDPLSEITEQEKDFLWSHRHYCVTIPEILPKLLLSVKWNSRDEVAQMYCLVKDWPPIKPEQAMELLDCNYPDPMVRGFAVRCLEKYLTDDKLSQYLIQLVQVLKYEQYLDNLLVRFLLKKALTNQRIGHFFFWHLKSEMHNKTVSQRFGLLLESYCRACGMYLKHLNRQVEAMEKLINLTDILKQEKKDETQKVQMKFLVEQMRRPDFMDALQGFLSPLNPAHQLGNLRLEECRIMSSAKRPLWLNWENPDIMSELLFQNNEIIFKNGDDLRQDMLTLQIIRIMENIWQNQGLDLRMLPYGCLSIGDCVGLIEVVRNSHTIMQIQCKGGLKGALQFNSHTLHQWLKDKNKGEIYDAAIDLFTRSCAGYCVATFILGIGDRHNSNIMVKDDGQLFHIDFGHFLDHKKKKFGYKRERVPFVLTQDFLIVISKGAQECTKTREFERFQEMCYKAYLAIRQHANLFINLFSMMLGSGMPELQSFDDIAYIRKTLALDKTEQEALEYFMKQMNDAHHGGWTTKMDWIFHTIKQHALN
# T4 sequence (P27986 whole entry partner, species assumed): as the sequence (P27986 whole entry partner, species assumed) above
# Method in brief: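 Kinase-Glo luminescence read-out of remaining ATP after PI3K reaction with PIP2 and ATP substrates in 50 mM HEPES pH 7.5, 3 mM MgCl2, 1 mM EGTA, 100 mM NaCl, 0.03% CHAPS, 2 mM DTT. Incubated at ambient temperature, 1 h for PI3Kα, 2 h for PI3Kδ. IC50 from four-parameter fit of % inhibition versus concentration.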
# [12] = test system: acetylated histone H3 (Ac-H3) in A2780s cells; test: Induction of histone H3 acetylation in A2780s cells (cytoblot); assay type: cell-based; details: Homo sapiens, 6 h treatment
# Method: as §5, §6
# [13] = test system: OCI-LY1 cells (B-cell lymphoma); test: Proliferation inhibition, OCI-LY1 (cck-8); assay type: cell-based; details: Homo sapiens, 96 h incubation
# Excerpt: as §4
# [14] = test system: hct116 cells (colon cancer); test: Cell proliferation inhibition, hct116 (MTT); assay type: cell-based; details: Homo sapiens, HCT-116; 96 h incubation; read-out: Proliferation IC50, Colon cancer hct116
# Method in brief: as §7
# [15] = test system: MV4-11 subcutaneous tumor; details: once per two days, 22 days
# Excerpt: During drug administration, measuring the weight and gross tumor volume of the mice per 2 days and keeping a record. The calculation formula is as V=π/6×A^2×B, where, where, V=gross tumor volume (mm^3), A=tumor width (mm) and B=tumor length (mm). Observing and keeping a record for the survival condition of the tested animals. After drug discontinuance, killing the mice through cervical dislocation and peeling off their tumors as per the operation specification of animal experiment. Evaluating the inhibition capability of the compounds to tumor activities by calculating the tumor inhibitory rate with the formula as: tumor inhibitory rate=(1−tumor weight of treatment group/tumor weight of control group)×100%. Analyzing and comparing the difference between each treatment group and control group with the method of t-test. The grading of significance level of difference is: ***, P<0.001; **, P<0.01; *, P<0.05; no statistical significance (ns), P>0.05.
# [16] = test system: MV4-11 cells (acute myeloid leukemia); test: Cell proliferation inhibition, MV4-11 (cck-8); assay type: cell-based; details: Homo sapiens, 96 h incubation, read-out: Proliferation IC50, Acute myeloid leukemia MV4-11
# Method in brief: as §7
# [17] = test system: Ramos cells (B-cell lymphoma); test: Proliferation inhibition, Ramos (cck-8); assay type: cell-based; details: Homo sapiens, 96 h incubation
# Excerpt: as §4
# [18] = molecular target: T5, mTOR (Homo sapiens, UniProt P42345); test: mTOR activity inhibition (ULight-4E-BP1 peptide); assay type: biochemical; details: Table 1, graded
# T5 construct: purchased Millipore 14-770
# Method: mTOR protein is purchased from Millipore Company (Catalog No.: 14-770). The reaction buffer system comprises 50 mM HEPES, 10 mM MgCl2, 1 mM EGTA, 3 mM […], 0.01% Tween-20 (purchased from Chengdu Kelong Chemical Regent Factory) and 2 mM DTT. The pH value of the reaction buffer is 7.5. Preparing 10 μL reaction system in corresponding wells of the 384 well plate, which contains the compositions as: the compound with designed concentration (or blank control), mTOR protein (with the concentration of 2.5 nM), ULight-4E-BP1 (containing the 37th and the 46th threonine residues, Thr37/46) peptide (purchased from PE Company, Catalog No.: TRF0128-M) and ATP substrates (ULight-4E-BP1 peptide, with the concentration of 50 nM and ATP, with the concentration of […]). Mixing it evenly for incubation under ambient temperature for 1 h; adding 10 μL testing liquid containing EDTA (ethylenediaminetetraacetic acid) and Eu-anti-phosphorylation-4E-BP1 (Thr37/46) antibody (purchased from PE Company, Catalog No.: TRF0216-M) into the reaction wells (after the testing liquid is added, the concentration of EDTA is 8 mM and the concentration of Eu-phosphorylation-4E-BP1 antibody is 2 nM); mixing it evenly and incubating it for 1 h under ambient temperature, then measuring the fluorescence intensity with a microplate reader and analyzing the result data with the software GraphPad Prism.
# as §2, §3
# [19] = test system: PI3Kγ; details: read-out: inhibition value to activity of PI3Kγ; literature [1]; cited from earlier work
# [20] = test system: human colon cancer hct116 subcutaneous tumor; test: Subcutaneous tumor model, human colon cancer hct116; details: 50 mg/kg, once per 2 days, intraperitoneal
smiles,measurement,setting,value
"CN(Cc1nc2c(N3CCOCC3)nc(-c3ccncc3)nc2n1C)c1ncc(C(=O)NO)cn1 [CLJ-8, 2-(((2-(4-pyridyl)-9-methyl-6-morpholine-9H-purine-8-yl))methyl(methyl)amino)-N-hydroxyl pyrimidine-5-formamide]",IC50,[1],> 10000 nM
same,IC50,[2],1 to 10 nM
same,IC50,[3],> 10000 nM
same,EC50,[4],100 to 200 nM
same,IC50,[5],> 10000 nM
same,IC50,[6],1 to 10 nM
same,IC50,[7],0.1 to 1 nM
same,IC50,[8],1 to 10 nM
same,IC50,[9],0.1 to 10 nM
same,IC50,[10],1 to 10 nM
same,IC50,"[11]; Table 1, graded",1000 to 10000 nM
same,IC50,"[11]; Table 4, graded",1000 to 10000 nM
same,EC50,[12],100 to 200 nM
same,IC50,[13],1 to 10 nM
same,IC50,[14],10 to 100 nM
same,Final survival condition (survived individuals/total individuals),[15]; 10 mg/kg i.v.,5/6
same,IC50,[16],0.1 to 10 nM
same,IC50,[17],0.1 to 1 nM
"COc1ccc(-c2nc(N3CCOCC3)c3sc(CN(C)c4ncc(C(=O)NO)cn4)cc3n2)cn1 [CUDC907, reference compound]",EC50,[4],> 200 nM
same,IC50,[18],1000 to 10000 nM
same,EC50,[12],100 to 200 nM
COc1ccc(-c2nc(N3CCOCC3)c3sc(CN(C)c4ncc(C(=O)NO)cn4)cc3n2)cn1 [CUDC-907],IC50,[19],39 nM
"O=C(CCCCCCC(=O)Nc1ccccc1)NO [SAHA, vorinostat, reference compound]",Final survival condition (survived individuals/total individuals),[15]; 50 mg/kg i.p.,6/6
same,Death,[20],0/6
